In patent US20240018125A1, “CYCLIC ISOTHIOUREA DERIVATIVES AS CXCR4 MODULATORS” (ERMIUM THERAPEUTICS, priority 2020, published 2024) one finds melting point and IC50 data, which are given here for 39 compounds.

Structures can show the parent of a compound that is named as a salt.

System in the first series: not given
Test: not given
Settings: not given
Compound `COc1cc2nc3n(c2cc1OC)C(O)(CSC1=NCc2ccccc2N1)CS3.Cl` (stereo not drawn) showed a melting point of 235 to 240 °C.

`CC1(C)CN2C(CSC3=NCc4ccccc4N3)=CSC2=N1` (as salt: hydrochloride) [Example 3, 3-(((3,4-dihydroquinazolin-2-yl)thio)methyl)-6,6-dimethyl-5,6-dihydroimidazo[2,1-b]thiazole dihydrochloride] returned a melting point of 245 to 249 °C.

The compound `CC1(C)CN=C(SCC2=CSC3=Nc4ccccc4CN23)N1` (as salt: hydrochloride) [Example 5, 3-(((5,5-dimethyl-4,5-dihydro-1H-imidazol-2-yl)thio)methyl)-5H-thiazolo[2,3-b]quinazoline dihydrochloride] displayed a melting point greater than 250 °C. The compound `CC1(C)CN2C(CSC3=NCc4ccccc4CN3)=CSC2=N1` (as salt: hydrochloride) [Example 7, 3-(((2,5-dihydro-1H-benzo[e][1,3]diazepin-3-yl)thio)methyl)-6,6-dimethyl-5,6-dihydroimidazo[2,1-b]thiazole dihydrochloride] had a melting point of 127 to 134 °C.

Another series deals with peripheral blood mononuclear cells (PBMCs) from healthy donors. As to the kind of experiment: IFN production by R848-activated PBMCs, quantified with twINNE luciferase reporter cell line. The series is classed as cell-based, human. Conditions: Homo sapiens, PBMC; read-out: IC50 of anti-inflammatory activity (IFN production by activated PBMCs). An outline of the steps: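 Healthy-donor PBMCs (4.10^6/mL, RPMI/10% FBS) were pre-treated with compound, then stimulated with R848 at 5 μg/mL for 24 h. Supernatants were put on twINNE cells, which carry luciferase under five ISREs, for 24 h, and Bright-Glo luminescence was read. IC50 values came from variable-slope dose-response fits.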
(A reporter such as luciferase makes a cellular process visible.)
`CC(CCCSC1=NCc2ccccc2N1)N1CCCC1` (stereo not drawn) [Example 165, 2-((4-(pyrrolidin-1-yl)pentyl)thio)-1,4-dihydroquinazoline dihydrochloride]: the IC50 was 10 to 32 µM. For `C[C@@H](CSC1=NCc2cc(Cl)ccc2N1)N1CCCC1` [Example 166, (S)-6-chloro-2-((2-(pyrrolidin-1-yl)propyl)thio)-1,4-dihydroquinazoline dihydrochloride], the IC50 is no more than 10 µM. In the case of `C[C@H](CSC1=NCc2cc(Cl)ccc2N1)N1CCCC1` [Example 167, (R)-6-chloro-2-((2-(pyrrolidin-1-yl)propyl)thio)-1,4-dihydroquinazoline dihydrochloride], the half-maximal inhibitory concentration (IC50) was no more than 10 µM. Consider `C[C@@H](CN1CCCC1)SC1=NCc2cc(Cl)ccc2N1` [Example 168, (S)-6-chloro-2-((1-(pyrrolidin-1-yl)propan-2-yl)thio)-1,4-dihydroquinazoline dihydrochloride], for which the half-maximal inhibitory concentration (IC50) was in the range of 10 to 32 µM.

For the compound `COc1ccc(CC2(C)CN=C(SCCCCN3CCCC3)N2)cc1` (stereo not drawn) [Example 169, 5-(4-methoxybenzyl)-5-methyl-2-((4-(pyrrolidin-1-yl)butyl)thio)-4,5-dihydro-1H-imidazole dihydrochloride], the IC50 is greater than 32 µM. Still for that read-out and setting: the same measure for `CC1(c2ccccc2)CN=C(SCCCCN2CCCC2)N1` (stereo not drawn) [Example 170, 5-methyl-5-phenyl-2-((4-(pyrrolidin-1-yl)butyl)thio)-4,5-dihydro-1H-imidazole dihydrochloride]: greater than 32 µM; for `c1ccc2c(c1)CN=C(SCCCCN1CCCC1)NC2` [Example 171, 3-((4-(pyrrolidin-1-yl)butyl)thio)-2,5-dihydro-1H-benzo[e][1,3]diazepine dihydrochloride]: greater than 32 µM. In the case of `CC1(C)CN=C(SCCCCN2CCCC2)N1` [Example 172, 4,4-dimethyl-2-((4-(pyrrolidin-1-yl)butyl)thio)-4,5-dihydro-1H-imidazole dihydrochloride], the IC50 is greater than 32 µM.

For the compound `C1CN=C(SCCCCN2CCCC2)NC1` [Example 173, 2-((4-(pyrrolidin-1-yl)butyl)thio)-1,4,5,6-tetrahydropyrimidine dihydrochloride], the IC50 was greater than 32 µM. Turning to `CN1CCCC1CCCSC1=NCc2cc(Cl)ccc2N1` (stereo not drawn) [Example 174, 6-chloro-2-((3-(1-methylpyrrolidin-2-yl)propyl)thio)-1,4-dihydroquinazoline dihydrochloride], the IC50 was no more than 10 µM. In the case of `C(CCN1CCCC1)CSC1=NCCN1` [Example 175, 2-((4-(pyrrolidin-1-yl)butyl)thio)-4,5-dihydro-1H-imidazole dihydrochloride], the IC50 was greater than 32 µM.

For the compound `Clc1ccc2c(c1)CN=C(SCCCCn1ccnc1)N2` [Example 176, 2-((4-(1H-imidazol-1-yl)butyl)thio)-6-chloro-1,4-dihydroquinazoline dihydrochloride], the half-inhibitory concentration (IC50) was 10 to 32 µM. As to `CN1CCC(CCSC2=NCc3cc(Cl)ccc3N2)C1` (stereo not drawn) [Example 177, 6-chloro-2-((2-(1-methylpyrrolidin-3-yl)ethyl)thio)-1,4-dihydroquinazoline dihydrochloride], the IC50 was no more than 10 µM. On to `C1CCNC(SCCCCN2CCCC2)=NC1` [Example 178, 2-((4-(pyrrolidin-1-yl)butyl)thio)-4,5,6,7-tetrahydro-1H-1,3-diazepine dihydrochloride], for which the half-inhibitory concentration (IC50) is greater than 32 µM. For the compound `CC1(C)CN=C(SCCCCN2CCCC2)NC1` [Example 179, 5,5-dimethyl-2-((4-(pyrrolidin-1-yl)butyl)thio)-1,4,5,6-tetrahydropyrimidine dihydrochloride], the IC50 is greater than 32 µM. Consider `c1ccc2c(c1)NC(SCCCCN1CCCC1)=NC21CC1` [Example 180, 2′-((4-(pyrrolidin-1-yl)butyl)thio)-1′H-spiro[cyclopropane-1,4′-quinazoline] dihydrochloride], for which the IC50 is 10 to 32 µM. The same measure, in the same setting: the same measure for `c1ccc(CC2CN=C(SCCCCN3CCCC3)N2)cc1` (stereo not drawn) [Example 181, 5-benzyl-2-((4-(pyrrolidin-1-yl)butyl)thio)-4,5-dihydro-1H-imidazole dihydrochloride]: greater than 32 µM; for `c1ccc2c(c1)CCN=C(SCCN1CCCC1)N2` [Example 182, 2-((2-(pyrrolidin-1-yl)ethyl)thio)-4,5-dihydro-1H-benzo[d][1,3]diazepine dihydrochloride]: 10 to 32 µM; for `COc1ccc(CC2(C)CN=C(SCCN3CCCC3)N2)cc1` (stereo not drawn) [Example 183, 5-(4-methoxybenzyl)-5-methyl-2-((2-(pyrrolidin-1-yl)ethyl)thio)-4,5-dihydro-1H-imidazole dihydrochloride]: greater than 32 µM. In the case of `C1CCC2NC(SCCN3CCCC3)=NCC2C1` (stereo not drawn) [Example 184, 2-((2-(pyrrolidin-1-yl)ethyl)thio)-1,4,4a,5,6,7,8,8a-octahydroquinazoline dihydrochloride], the IC50 was greater than 32 µM. Take `C(CCN1CCCC1)CSC1=NCC2(CC2)N1` [Example 185, 5-((4-(pyrrolidin-1-yl)butyl)thio)-4,6-diazaspiro[2.4]hept-5-ene dihydrochloride]: the IC50 was greater than 32 µM. For the compound `c1ccc2c(c1)CN=C(SCCN1CCCC1)NC2` [Example 186, 3-((2-(pyrrolidin-1-yl)ethyl)thio)-2,5-dihydro-1H-benzo[e][1,3]diazepine dihydrochloride], the half-inhibitory concentration (IC50) is greater than 32 µM. For the compound `C1CCN(CCSC2=NCC3(CC3)N2)C1` [Example 187, 5-((2-(pyrrolidin-1-yl)ethyl)thio)-4,6-diazaspiro[2.4]hept-5-ene dihydrochloride], the IC50 was no more than 10 µM. Turning to `c1ccc2c(c1)CCN=C(SCc1ccncc1)N2` [Example 188, 2-((pyridin-4-ylmethyl)thio)-4,5-dihydro-1H-benzo[d][1,3]diazepine dihydrochloride], the IC50 was in the range of 10 to 32 µM.

As to `c1ccc2c(c1)CN=C(SCc1ccncc1)NC2` [Example 189, 3-((pyridin-4-ylmethyl)thio)-2,5-dihydro-1H-benzo[e][1,3]diazepine dihydrochloride], the IC50 is greater than 32 µM. As to `c1ccc2c(c1)CCN=C(SCCCN1CCCC1)N2` [Example 190, 2-((3-(pyrrolidin-1-yl)propyl)thio)-4,5-dihydro-3H-benzo[d][1,3]diazepine dihydrochloride], the IC50 lay within 10 to 32 µM. For the compound `c1ccc2c(c1)CCN=C(SCCN1CCCc3ccccc31)N2` [Example 191, 2-((2-(3,4-dihydroquinolin-1(2H)-yl)ethyl)thio)-4,5-dihydro-1H-benzo[d][1,3]diazepine hydrochloride], the 50% inhibitory concentration (IC50) was in the range of 10 to 32 µM.

As for `c1ccc2c(c1)CCN=C(SCCN1CCc3ccccc31)N2` [Example 192, 2-((2-(indolin-1-yl)ethyl)thio)-4,5-dihydro-1H-benzo[d][1,3]diazepine hydrochloride], the IC50 is 10 to 32 µM. For the compound `c1cncc(CSC2=NCc3ccccc3CN2)c1` [Example 193, 3-((pyridin-3-ylmethyl)thio)-2,5-dihydro-1H-benzo[e][1,3]diazepine], the IC50 was greater than 32 µM. On to `c1ccc2c(c1)CN=C(SCCCN1CCCC1)NC2` [Example 194, 3-((3-(pyrrolidin-1-yl)propyl)thio)-2,5-dihydro-1H-benzo[e][1,3]diazepine dihydrochloride], for which the IC50 is greater than 32 µM. With `Fc1ccc(CC2CN3C(CSC4=NCc5ccccc5N4)=CSC3=N2)cc1` (stereo not drawn) [Example 196, 3-(((1,4-dihydroquinazolin-2-yl)thio)methyl)-6-(4-fluorobenzyl)-5,6-dihydroimidazo[2,1-b]thiazole dihydrochloride], the IC50 is no more than 10 µM. Still for that read-out and setting: as for `CC(C)(C)OC(=O)N1CC[C@H](SC2=NCCc3ccccc3N2)C1` [Example 198, tert-butyl (S)-3-((4,5-dihydro-1H-benzo[d][1,3]diazepin-2-yl)thio)pyrrolidine-1-carboxylate], the figure is 10 to 32 µM. Same read-out and setting: the same measure for `c1ccc2c(c1)CCN=C(S[C@H]1CCNC1)N2` [Example 199, (S)-2-(pyrrolidin-3-ylthio)-4,5-dihydro-3H-benzo[d][1,3]diazepine dihydrochloride]: 10 to 32 µM.

As for `CN1CC[C@H](SC2=NCCc3ccccc3N2)C1` [Example 200, (S)-2-((1-methylpyrrolidin-3-yl)thio)-4,5-dihydro-3H-benzo[d][1,3]diazepine dihydrochloride], the IC50 is no more than 10 µM.

Still in this series, the particulars now being: PBMCs from 2 healthy donors, R848 5 μg/mL, IFN in supernatant by twINNE luciferase reporter; IT1t value is mean of at least 7 independent sets; read-out: IC50 of anti-inflammatory activity (IFN production by activated PBMCs).
For the compound `CC1(C)CN2C(CSC(=NC3CCCCC3)NC3CCCCC3)=CSC2=N1` [IT1t, reference compound], the IC50 came to 32 µM.

A word on the melting point: it is the temperature, or range, at which the solid turns liquid. The term IC50 denotes the midpoint of a concentration-inhibition curve.
